One may read the IC50 as the point on the concentration scale where inhibition reaches its midpoint.

Molecules are shown by their SMILES.

Assay [1] has as its target T1, human vanilloid-1 (hVR-1) in hVR-1-HEK293 cell line (Homo sapiens, UniProt Q8NER1).
T1 construct: expressed in transfected cells; host or cells: HEK293 Tet-on strain, doxycycline-induced
Nature of the assay: Inhibitory effect on calcium influx via a vanilloid receptor (capsaicin-stimulated, Fluo-3/AM). It counts as cell-based. The following applies: hVR-1-HEK293 cells, 1 μM of capsaicin, compounds 0.015˜2000 nM; read-out: I.A. (inhibitory activity), IC50 on intracellular calcium influx. Put shortly: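 Doxycycline-induced (1 μg/mL, 2 days) hVR-1-HEK293 cells loaded with Fluo-3/AM for 90 min at 37° C, then stimulated with 1 μM capsaicin. Calcium influx expressed as background-corrected fluorescence relative to positive control, analysed by Hill equation and graded by activity criteria.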
Background: Calcium flux is commonly read through the fluorescence of an indicator in the cells.

The test system of a further assay is ICR male mice. Nature of the assay: Phenyl-p-quinone (PBQ)-induced writhing experiment using mice. It counts as in vivo. The following applies: orally administered, PBQ (0.02%) intraperitoneally after 1 hour, writhing counted for 10 min. On the technique in general: Writhing tests count abdominal constrictions after an irritant is injected.

T1 sequence (Q8NER1 whole entry): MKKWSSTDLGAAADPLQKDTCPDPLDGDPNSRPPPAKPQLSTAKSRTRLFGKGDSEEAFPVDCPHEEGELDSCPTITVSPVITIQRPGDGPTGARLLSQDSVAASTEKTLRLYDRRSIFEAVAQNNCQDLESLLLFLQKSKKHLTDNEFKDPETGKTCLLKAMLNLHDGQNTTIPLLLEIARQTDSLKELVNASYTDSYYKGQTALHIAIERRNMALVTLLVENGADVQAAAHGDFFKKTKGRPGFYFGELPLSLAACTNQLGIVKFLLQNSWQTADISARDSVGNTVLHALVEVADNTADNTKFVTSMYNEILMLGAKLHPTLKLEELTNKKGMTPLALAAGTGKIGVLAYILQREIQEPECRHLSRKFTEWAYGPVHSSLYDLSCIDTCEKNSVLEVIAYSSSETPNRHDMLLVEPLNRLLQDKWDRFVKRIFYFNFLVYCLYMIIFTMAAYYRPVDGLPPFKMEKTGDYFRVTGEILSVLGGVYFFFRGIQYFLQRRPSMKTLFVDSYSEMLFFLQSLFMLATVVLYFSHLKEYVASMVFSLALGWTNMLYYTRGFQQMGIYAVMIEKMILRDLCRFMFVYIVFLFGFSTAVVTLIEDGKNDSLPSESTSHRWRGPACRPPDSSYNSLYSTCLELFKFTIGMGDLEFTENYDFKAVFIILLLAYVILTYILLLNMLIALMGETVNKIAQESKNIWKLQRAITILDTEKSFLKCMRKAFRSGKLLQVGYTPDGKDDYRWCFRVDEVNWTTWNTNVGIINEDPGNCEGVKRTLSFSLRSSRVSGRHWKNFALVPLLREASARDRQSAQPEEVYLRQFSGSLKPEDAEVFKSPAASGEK

Regarding `Cc1ccc(N2c3cccc(-c4nc5ccc(F)cc5[nH]4)c3OC[C@@H]2CO)nc1` [Example 49, [(S)-8-(6-fluoro-1H-benzimidazol-2-yl)-4-(5-methyl-pyridin-2-yl)-3,4-dihydro-2H-benzo[1,4]oxazin-3-yl]-methanol], in assay [1], the IC50 is less than 20 nM. Moreover, in the assay on ICR male mice, the “I.A. (inhibitory activity), % inhibition rate of writhing” value is listed as “+++ (51-80%)”.

As to `Cc1ccc(N2c3cccc(-c4nc5cc(F)c(F)cc5[nH]4)c3OC[C@@H]2CO)nc1` [Example 44, [(S)-8-(5,6-difluoro-1H-benzimidazol-2-yl)-4-(5-methyl-pyridin-2-yl)-3,4-dihydro-2H-benzo[1,4]oxazin-3-yl]-methanol], the IC50 in assay [1] is less than 20 nM. Further, the “I.A. (inhibitory activity), % inhibition rate of writhing” value in the assay with ICR male mice was “++++ (>80%)”.

Regarding `Cc1ccc(N2CCOc3c(-c4nc5ccc(C(F)(F)F)cc5[nH]4)cccc32)nc1` [Example 25, 4-(5-methyl-pyridin-2-yl)-8-(6-trifluoromethyl-1H-benzimidazol-2-yl)-3,4-dihydro-2H-benzo[1,4]oxazine], the IC50 in assay [1] was 20 to 100 nM. Further, the “I.A. (inhibitory activity), % inhibition rate of writhing” value in the assay on ICR male mice was “+ (<20%)”.

`Cc1ccc(N2c3cccc(-c4nc5c(Br)cc(C(F)(F)F)cc5[nH]4)c3OC[C@@H]2CO)nc1` [Example 41, [(S)-8-(4-bromo-6-trifluoromethyl-1H-benzimidazol-2-yl)-4-(5-methyl-pyridin-2-yl)-3,4-dihydro-2H-benzo[1,4]oxazin-3-yl]-methanol]: the IC50 in assay [1] was less than 20 nM. Moreover, the “I.A. (inhibitory activity), % inhibition rate of writhing” value in the assay on ICR male mice is on record as “++ (20˜50%)”.

With `COC[C@H]1COc2c(-c3nc4cc(F)c(F)cc4[nH]3)cccc2N1c1ccc(C)cn1` [Example 102, (S)-8-(5,6-difluoro-1H-benzimidazol-2-yl)-3-methoxymethyl-4-(5-methyl-pyridin-2-yl)-3,4-dihydro-2H-benzo[1,4]oxazine], in assay [1], the IC50 was less than 20 nM. The “I.A. (inhibitory activity), % inhibition rate of writhing” value in the assay with ICR male mice was “+++ (51-80%)”.

As to `FC(F)(F)c1ccc2nc(-c3cccc4c3OCCN4c3ccc(Br)cn3)[nH]c2c1` [Example 19, 4-(5-bromo-pyridin-2-yl)-8-(6-trifluoromethyl-1H-benzimidazol-2-yl)-3,4-dihydro-2H-benzo[1,4]oxazine], in assay [1], the IC50 lay within 20 to 100 nM. Besides, in the assay with ICR male mice, the “I.A. (inhibitory activity), % inhibition rate of writhing” value was “++ (20˜50%)”.

In the case of `C=Cc1ccc(N2c3cccc(-c4nc5ccc(Br)cc5[nH]4)c3OC[C@@H]2CO)nc1` [Example 60, [(S)-8-(6-bromo-1H-benzimidazol-2-yl)-4-(5-vinyl-pyridin-2-yl)-3,4-dihydro-2H-benzo[1,4]oxazin-3-yl]-methanol], in assay [1], the IC50 was less than 20 nM. Also, the “I.A. (inhibitory activity), % inhibition rate of writhing” value in the assay with ICR male mice is reported as “+++ (51-80%)”.

As for `COC[C@H]1COc2c(-c3nc4ccc(Br)cc4[nH]3)cccc2N1c1ccc(C)cn1` [Example 89, (S)-8-(6-bromo-1H-benzimidazol-2-yl)-3-methoxymethyl-4-(5-methyl-pyridin-2-yl)-3,4-dihydro-2H-benzo[1,4]oxazine], the IC50 in assay [1] was less than 20 nM. Further, the “I.A. (inhibitory activity), % inhibition rate of writhing” value in the assay on ICR male mice was “+++ (51-80%)”.

For `Cc1ccc(N2c3cccc(-c4nc5c(Cl)cc(C(F)(F)F)cc5[nH]4)c3OC[C@@H]2CO)nc1` [Example 39, [(S)-8-(4-chloro-6-trifluoromethyl-1H-benzimidazol-2-yl)-4-(5-methyl-pyridin-2-yl)-3,4-dihydro-2H-benzo[1,4]oxazin-3-yl]-methanol], the IC50 in assay [1] was less than 20 nM. Also, in the assay on ICR male mice, the “I.A. (inhibitory activity), % inhibition rate of writhing” value is reported as “+++ (51-80%)”.

As for `COC[C@H]1COc2c(-c3nc4cc(Cl)c(Cl)cc4[nH]3)cccc2N1c1ccc(C)cn1` [Example 95, (S)-8-(5,6-dichloro-1H-benzimidazol-2-yl)-3-methoxymethyl-4-(5-methyl-pyridin-2-yl)-3,4-dihydro-2H-benzo[1,4]oxazine], the IC50 in assay [1] was less than 20 nM. For the same compound, the “I.A. (inhibitory activity), % inhibition rate of writhing” value in the assay with ICR male mice was “+++ (51-80%)”.

Regarding `CCc1ccc(N2c3cccc(-c4nc5c(F)cc(F)cc5[nH]4)c3OC[C@@H]2CO)nc1` [Example 86, [(S)-8-(4,6-difluoro-1H-benzimidazol-2-yl)-4-(5-ethyl-pyridin-2-yl)-3,4-dihydro-2H-benzo[1,4]oxazin-3-yl]-methanol], in assay [1], the half-inhibitory concentration (IC50) is less than 20 nM. For the same compound, in the assay with ICR male mice, the “I.A. (inhibitory activity), % inhibition rate of writhing” value is reported as “+++ (51-80%)”.

On to `C=Cc1ccc(N2c3cccc(-c4nc5ccc(OC(F)(F)F)cc5[nH]4)c3OC[C@@H]2CO)nc1` [Example 67, [(S)-8-(6-trifluoromethoxy-1H-benzimidazol-2-yl)-4-(5-vinyl-pyridin-2-yl)-3,4-dihydro-2H-benzo[1,4]oxazin-3-yl]-methanol], for which the IC50 in assay [1] was less than 20 nM. Further, the “I.A. (inhibitory activity), % inhibition rate of writhing” value in the assay on ICR male mice was “+++ (51-80%)”.

On to `Cc1ccc(N2c3cccc(-c4nc5c(Br)cc(Br)cc5[nH]4)c3OC[C@@H]2CO)nc1` [Example 42, [(S)-8-(4,6-dibromo-1H-benzimidazol-2-yl)-4-(5-methyl-pyridin-2-yl)-3,4-dihydro-2H-benzo[1,4]oxazin-3-yl]-methanol], for which, in assay [1], the IC50 lay in the range of 20 to 100 nM. Moreover, the “I.A. (inhibitory activity), % inhibition rate of writhing” value in the assay with ICR male mice is “+++ (51-80%)”.

For `Cc1ccc(N2c3cccc(-c4nc5ccc(OC(F)(F)F)cc5[nH]4)c3OC[C@@H]2CO)nc1` [Example 47, [(S)-4-(5-methyl-pyridin-2-yl)-8-(6-trifluoromethoxy-1H-benzimidazol-2-yl)-3,4-dihydro-2H-benzo[1,4]oxazin-3-yl]-methanol], the IC50 in assay [1] is less than 20 nM. Moreover, the “I.A. (inhibitory activity), % inhibition rate of writhing” value in the assay on ICR male mice was “++ (20˜50%)”.

As for `Cc1ccc(N2c3cccc(-c4nc5ccc(Cl)cc5[nH]4)c3OC[C@@H]2CO)nc1` [Example 37, [(S)-8-(6-chloro-1H-benzimidazol-2-yl)-4-(5-methyl-pyridin-2-yl)-3,4-dihydro-2H-benzo[1,4]oxazin-3-yl]-methanol], the IC50 in assay [1] is 20 to 100 nM. For the same compound, the “I.A. (inhibitory activity), % inhibition rate of writhing” value in the assay on ICR male mice is “+++ (51-80%)”.

These data come from patent US8362012B2, “Benzoxazine benzimidazole derivative, a pharmaceutical composition comprising the same, and a use thereof” (Daewoong Pharmaceutical Co., Ltd., priority 2008, dated 2013).
